Among the data in ChEMBL document CHEMBL3046941, “Synthesis of novel isoxazolines via 1,3-dipolar cycloaddition and evaluation of anti-stress activity” (2011) are Activity values, retold here.

Assay type in all cases: functional
In assay [1] the test system is Rattus norvegicus. The assay is described as follows: Antistress activity in Rattus norvegicus Sprague-Dawley (rat) assessed as inhibition of acute stress-induced increase in corticosterone level at 40 mg/kg, po (reference value: 465.7 +/- 15.77 ng/ml).
For assay [2], the system named is Rattus norvegicus. The assay is described as follows: Antistress activity in Rattus norvegicus Sprague-Dawley (rat) assessed as inhibition of acute stress-induced plasma creatinine kinase activity at 40 mg/kg, po (reference value: 1115 +/- 29.43 IU/dl).
The subject of assay [3] is Rattus norvegicus. The experiment in a line: Antistress activity in Rattus norvegicus Sprague-Dawley (rat) assessed as inhibition of acute stress-induced adrenal hypertrophy measured as adrenal gland weight per 100 g of body weight at 40 mg/kg, po (reference value: 10.20 +/- 0.69 mg).
Assay [4] relates to Rattus norvegicus. The experiment in a line: Antistress activity in Rattus norvegicus Sprague-Dawley (rat) assessed as inhibition of acute stress-induced hyperglycemia measured as glucose level at 40 mg/kg, po (reference value: 134.7 +/- 4.68 mg/dl).

The structures appear in SMILES notation.

For the compound `COc1cc(CC2CC(c3cccc4ccccc34)=NO2)ccc1OCc1ccccc1` (stereo unspecified), the Activity in the assay with Rattus norvegicus [1] stood at 444.7 ng/mL; in the assay with Rattus norvegicus [2], 994.5 IU/dl; in the assay with Rattus norvegicus [3], 9.6 mg; with Rattus norvegicus [4] it was 116.3 mg/dL.
For `COc1cc(CC2CC(c3cccc4ccccc34)=NO2)ccc1OCCN1CCCC1` (stereo unspecified), the Activity with Rattus norvegicus [1] came out at 421 ng/mL; with Rattus norvegicus [2] it was 1074 IU/dl; with Rattus norvegicus [3] it was 10.58 mg; in the assay on Rattus norvegicus [4], 125 mg/dL.
For the compound `COc1cc(CC2CC(c3cccc4ccccc34)=NO2)ccc1OCCN1CCCCC1` (stereo unspecified), the Activity in the assay with Rattus norvegicus [1] is 282.5 ng/mL; in the assay with Rattus norvegicus [2] it was 603.7 IU/dl; in the assay on Rattus norvegicus [3], 7.23 mg; in the assay on Rattus norvegicus [4] it was 78.17 mg/dL.
On to `COc1ccc(C2=NOC(Cc3ccc(O)c(OC)c3)C2)c(OC)c1` (stereo unspecified), for which the Activity in the assay with Rattus norvegicus [1] came to 432.2 ng/mL; with Rattus norvegicus [2] it was 1004 IU/dl; with Rattus norvegicus [3] it was 9.31 mg; in the assay with Rattus norvegicus [4], 112 mg/dL.
Consider `COc1ccc(C2=NOC(Cc3ccc(OC(C)=O)c(OC)c3)C2)c(OC)c1` (stereo unspecified), for which the Activity is 364.2 ng/mL in the assay with Rattus norvegicus [1], 766.71 IU/dl in the assay with Rattus norvegicus [2], 7.01 mg with Rattus norvegicus [3] and 107.2 mg/dL with Rattus norvegicus [4].
For `COc1ccc(C2=NOC(Cc3ccc(OC)c(OC)c3)C2)c(OC)c1` (stereo unspecified) the same measures were 446 ng/mL, 1092 IU/dl, 9.63 mg and 122 mg/dL.
Regarding `CCOc1ccc(CC2CC(c3ccc(OC)cc3OC)=NO2)cc1OC` (stereo unspecified), the Activity with Rattus norvegicus [1] worked out at 275.5 ng/mL; in the assay with Rattus norvegicus [2] it was 729.7 IU/dl; with Rattus norvegicus [3], 7.82 mg; in the assay with Rattus norvegicus [4] it was 93 mg/dL.
For `COc1ccc(C2=NOC(Cc3ccc(OCc4ccccc4)c(OC)c3)C2)c(OC)c1` (stereo unspecified), in that order: 354.8 ng/mL, 664.3 IU/dl, 8.01 mg and 80.5 mg/dL.
Regarding `COc1ccc(C2=NOC(Cc3ccc(OCCN4CCCC4)c(OC)c3)C2)c(OC)c1` (stereo unspecified), the Activity in the assay on Rattus norvegicus [1] is 429.8 ng/mL; with Rattus norvegicus [2], 934.7 IU/dl; in the assay with Rattus norvegicus [3], 9.82 mg; with Rattus norvegicus [4], 127 mg/dL.
Turning to `COc1ccc(C2=NOC(Cc3ccc(OCCN4CCCCC4)c(OC)c3)C2)c(OC)c1` (stereo unspecified), the Activity in the assay with Rattus norvegicus [1] was 320 ng/mL; with Rattus norvegicus [2], 733.8 IU/dl; with Rattus norvegicus [3] it was 7.6 mg; in the assay with Rattus norvegicus [4], 101.7 mg/dL.
On to `COc1cc(CC2CC(c3cccc4ccccc34)=NO2)ccc1O` (stereo unspecified), for which the Activity in the assay with Rattus norvegicus [1] was found to be 417.2 ng/mL; in the assay on Rattus norvegicus [2], 998.5 IU/dl; in the assay with Rattus norvegicus [3], 9.86 mg; with Rattus norvegicus [4], 86.24 mg/dL.
As to `COc1cc(CC2CC(c3cccc4ccccc34)=NO2)ccc1OC(C)=O` (stereo unspecified), the Activity was determined as 311.8 ng/mL with Rattus norvegicus [1], 673 IU/dl in the assay on Rattus norvegicus [2], 7.77 mg in the assay with Rattus norvegicus [3] and 74.67 mg/dL with Rattus norvegicus [4].
For `COc1ccc(CC2CC(c3cccc4ccccc34)=NO2)cc1OC` (stereo unspecified) the same measures were 293.5 ng/mL, 590 IU/dl, 7.54 mg and 109.51 mg/dL.
For `CCOc1ccc(CC2CC(c3cccc4ccccc34)=NO2)cc1OC` (stereo unspecified), in that order: 292.3 ng/mL, 625.7 IU/dl, 7.89 mg and 72.83 mg/dL.
